Reference: PMC2174548 (The Journal of Cell Biology, 2000)

Columns and labels:
Format in all cases: cell-based
[1] = target: T1, P-glycoprotein (Pgp) (Homo sapiens, UniProt P08183); experiment: fluorescence accumulation in PgpCFP-transfected cells
[2] = target: T1, P-glycoprotein (Pgp); experiment: cellular drug accumulation versus Pgp expression
[3] = target: T1, P-glycoprotein (Pgp); experiment: fluorescence accumulation in PgpGFP-transfected cells
[4] = target: T1, P-glycoprotein (Pgp); experiment: protection from microtubule depolymerization in PgpGFP-transfected HeLa cells
[5] = target: T1, P-glycoprotein (Pgp); experiment: as above; remark: listed apart in the source

T1 sequence (P08183 whole entry): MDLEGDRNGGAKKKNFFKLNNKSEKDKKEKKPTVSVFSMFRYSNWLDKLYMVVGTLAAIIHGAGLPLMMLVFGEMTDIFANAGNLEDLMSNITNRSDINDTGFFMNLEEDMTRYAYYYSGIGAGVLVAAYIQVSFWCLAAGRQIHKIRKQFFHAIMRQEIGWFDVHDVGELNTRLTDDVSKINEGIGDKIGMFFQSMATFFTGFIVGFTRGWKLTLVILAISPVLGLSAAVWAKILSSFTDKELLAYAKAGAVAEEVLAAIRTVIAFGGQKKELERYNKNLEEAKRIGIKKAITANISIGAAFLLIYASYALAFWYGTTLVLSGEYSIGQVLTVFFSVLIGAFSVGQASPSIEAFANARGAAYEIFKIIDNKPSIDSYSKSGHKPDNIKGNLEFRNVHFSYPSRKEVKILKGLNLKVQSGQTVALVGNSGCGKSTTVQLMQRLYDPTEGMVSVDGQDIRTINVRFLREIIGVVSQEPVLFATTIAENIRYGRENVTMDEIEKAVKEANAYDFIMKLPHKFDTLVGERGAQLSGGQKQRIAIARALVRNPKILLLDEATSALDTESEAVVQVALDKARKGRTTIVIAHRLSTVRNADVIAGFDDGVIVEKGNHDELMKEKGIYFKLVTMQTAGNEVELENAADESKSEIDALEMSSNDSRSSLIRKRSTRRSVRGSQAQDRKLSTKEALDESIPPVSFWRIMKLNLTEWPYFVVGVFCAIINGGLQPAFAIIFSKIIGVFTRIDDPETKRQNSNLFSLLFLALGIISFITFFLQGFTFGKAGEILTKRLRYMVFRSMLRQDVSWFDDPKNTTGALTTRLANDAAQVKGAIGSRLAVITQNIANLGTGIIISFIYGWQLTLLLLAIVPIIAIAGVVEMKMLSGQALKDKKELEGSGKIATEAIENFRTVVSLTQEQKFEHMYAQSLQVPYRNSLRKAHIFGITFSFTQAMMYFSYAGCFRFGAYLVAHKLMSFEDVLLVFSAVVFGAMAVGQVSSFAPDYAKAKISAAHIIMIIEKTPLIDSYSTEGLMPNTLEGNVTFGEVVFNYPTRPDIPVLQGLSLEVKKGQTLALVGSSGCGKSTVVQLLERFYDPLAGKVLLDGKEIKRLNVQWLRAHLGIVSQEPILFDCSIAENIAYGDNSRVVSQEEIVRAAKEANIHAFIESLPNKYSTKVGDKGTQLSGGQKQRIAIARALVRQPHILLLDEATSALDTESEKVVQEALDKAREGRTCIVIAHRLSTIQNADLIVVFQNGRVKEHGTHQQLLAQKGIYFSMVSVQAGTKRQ

Q: With `CC(=O)OCOC(=O)CN(CC(=O)OCOC(C)=O)Cc1cc2c(cc1OC(C)=O)Oc1cc(OC(C)=O)c(CN(CC(=O)OCOC(C)=O)CC(=O)OCOC(C)=O)cc1C21OC(=O)c2ccccc21` [Calcein AM] as the molecule, how does the Effects on fluorescence [1] read?
A: > 10 fold

Q: With `O=C1c2c(O)ccc(O)c2C(=O)c2c(NCCNCCO)ccc(NCCNCCO)c21` [mitoxantrone] as the molecule, how does the “cellular drug accumulation versus Pgp expression (data not shown)” value [2] read?
A: the level of Pgp expression was inversely related to the cellular accumulation of mitoxantrone

Q: Which Effects on fluorescence [3] does the source give for `CC(=O)OCOC(=O)CN(CC(=O)OCOC(C)=O)c1ccc(C)cc1OCCOc1cc2cc(-c3ncc(C(=O)OCOC(C)=O)o3)oc2cc1N(CC(=O)OCOC(C)=O)CC(=O)OCOC(C)=O` [Fura-2 AM] here?
A: > 10 fold

Q: Which Fold resistance [4] does the source give for `COc1cc2c(c(OC)c1OC)-c1ccc(OC)c(=O)cc1[C@@H](NC(C)=O)CC2` [colchicine] here?
A: 5–25 fold

Q: How did the “protection from microtubule depolymerization in PgpGFP-transfected HeLa cells (2)” value [5] turn out when `CC[C@]1(O)C[C@H]2CN(CCc3c([nH]c4ccccc34)[C@@](C(=O)OC)(c3cc4c(cc3OC)N(C=O)[C@H]3[C@@](O)(C(=O)OC)[C@H](OC(C)=O)[C@]5(CC)C=CCN6CC[C@]43[C@@H]65)C2)C1` [vincristine] was run?
A: 25–125 fold
